The text below walks through data of patent publication US20250171462A1 (NICO Therapeutics, Inc., priority 2022, published 2025).

This experiment concerns the target T1, full-length SARM1 (FL-SARM1) (Homo sapiens, UniProt Q6SZW1).
T1 sequence (Q6SZW1 28-724): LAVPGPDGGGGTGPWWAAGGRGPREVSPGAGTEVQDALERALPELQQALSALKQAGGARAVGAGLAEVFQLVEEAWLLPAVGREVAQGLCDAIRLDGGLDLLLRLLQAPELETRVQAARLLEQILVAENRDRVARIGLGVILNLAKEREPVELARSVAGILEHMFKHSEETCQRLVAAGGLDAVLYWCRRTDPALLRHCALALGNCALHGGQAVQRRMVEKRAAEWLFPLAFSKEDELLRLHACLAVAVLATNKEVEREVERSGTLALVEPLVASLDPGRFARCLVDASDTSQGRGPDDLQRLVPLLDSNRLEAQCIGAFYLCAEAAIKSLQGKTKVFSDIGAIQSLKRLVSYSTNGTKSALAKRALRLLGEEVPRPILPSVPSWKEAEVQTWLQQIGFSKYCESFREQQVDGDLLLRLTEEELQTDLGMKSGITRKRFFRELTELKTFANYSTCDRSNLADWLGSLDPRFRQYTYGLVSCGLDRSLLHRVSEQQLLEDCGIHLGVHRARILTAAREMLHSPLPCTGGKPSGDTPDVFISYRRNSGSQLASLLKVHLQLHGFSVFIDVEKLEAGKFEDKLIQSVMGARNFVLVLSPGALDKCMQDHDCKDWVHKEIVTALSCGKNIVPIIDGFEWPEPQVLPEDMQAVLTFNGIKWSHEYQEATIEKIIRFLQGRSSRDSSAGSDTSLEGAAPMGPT
In words: FL-SARM1 cellular lysate assay (NAD/NADH-Glo detection of remaining NAD+, NMN-activated). To be noted: for IC50: Activity (μM) (IC50).

Setting [1] is: read-out: Activity (IC50 class), 11 point curve.
The mark [2] stands for this setting: Activity (IC50 class), 11 point curve.

pIC50: −log10 of the molar value. Read-outs that look alike come from different tables or passages of the source.

Procedure: Preparation of full-length SARM1 (FL-SARM1) lysate: HEK293T cells (ATCC: CRL-3216) were grown on 150 mm TC-treated dishes to 80-90% confluency in complete DMEM (DMEM (Thermo Fisher: 11965175) supplemented with 10% HI—FBS (VWR: 10802-772), 1× Pen/Strep (Thermo Fisher: 15140122), 1×NEAA (Thermo Fisher: 1140050), 1× glutamax (Thermo Fisher: 35050061), and 1 mM sodium pyruvate (Thermo Fisher: 11360070)) at 37° C. and 5% CO2. One hour prior to transfection, the media was replaced with fresh, 37° C. complete DMEM (20 mL per one 150 mm dish) supplemented with additional 10 mM glucose (Alfa Aesar AAJ60067EQE). Per one 150 mm dish, 30 μg FL-SARM1 (SEQ. ID. 1; cloned in-house) plasmid was dissolved in 1 mL DMEM at ambient temperature and were mixed by inverting the tube 8-10 times. 90 μL of GenJet™ in vitro DNA transfection reagent (Ver2) was dissolved in 1 mL DMEM at ambient temperature and were mixed by inverting the tube 8-10 times. The plasmid and transfection agent solutions were combined, mixed by 8-10 inversions and incubated for 10 minutes at ambient temperature. 2 mL of this transfection mixture was added to each dish containing HEK293T cells as prepared above followed by a gentle mixing of 4-5 horizontal rotations. The dishes were incubated at 37° C. and 5% CO2 for 24 h. The dishes were removed from the incubator, the medium was aspirated and the cells were scraped off using cell scrapers in ice-cold 1×PBS (5 mL/dish, Thermo Fisher Scientific 10010023). The collected cells were centrifuged at 300 g for 5 minutes at 4° C. The supernatant was aspirated and the pellet was frozen at −80° C. until needed. The cell pellet from 30 dishes was dissolved in 30 mL 1×PBS supplemented with 4 tablets of Complete, Mini EDTA-free protease inhibitor cocktail at 4° C. This mixture was sonicated on ice for 10 minutes at 50% amplitude with a 1 second on/1 second off interval using a Model 120 sonicator (Thermo Fisher Scientific, FB120110). The lysate was centrifuged at 16000 g for 10 minutes at 4° C.
To a white 384-well Proxiplate (PerkinElmer, PE-6008280) was added 50 nL/well of a DMSO solution containing test compounds followed by 7.5 μL/well of a 0.067 mg/mL solution of SARMi cellular lysate in reaction buffer (DPBS containing CHAPSO (0.1%) and fatty acid free BSA (0.032%)). The plate was centrifuged for 1 minute at 1000 RPM and then placed in an incubator at 23° C. for 15 minutes. To the wells were added 2.5 μL/well of a solution containing 40 M NAD^+ and 4 mM nicotinamide mononucleotide (NMN) in reaction buffer. The plate was centrifuged for 1 min at 1000 RPM, the plate was sealed and placed in an incubator at 23° C. for 3.5 hours before adding 3.5 μL/well of NAD/NADH-Glo™ solution (preparation as described by Promega using the extended detection protocol). The plate was centrifuged for 1 minute at 1000 RPM and then incubated at 23° C. for 20 minutes. 1 μL/well of a 3.625 mM solution of menadione in DMSO was added and the plate was centrifuged for 1 minute at 1000 RPM. Relative light units (RLU) were recorded using an Envision plate reader at a height of 6.5 mm.
IC50 values were calculated from an 11 point curve using ½ log dilutions using a four-parameter logistic regression curve fit.

What is called IC50 is the concentration that gives 50% inhibition. Low values mean greater potency, high ones weaker potency. The pIC50 is −log10 of the IC50, conventionally taken in molar units. `Cc1ccc(NC(=O)N2[C@@H]3CC(C)C[C@H]2C3)cc1-c1ncccc1C` (mixture of isomers) [Example 31, 3-methyl-N-(4-methyl-3-(3-methylpyridin-2-yl)phenyl)-6-azabicyclo[3.1.1]heptane-6-carboxamide]: 0.8 µM corresponded to half-maximal inhibition (11 point curve) (IC50). Moreover, the pIC50 under setting [1] is 6.00 to 10.00.
In the same order, the values of `Cc1ccc(NC(=O)N2C3CC2CC(C(F)(F)F)C3)cc1-c1ccccn1` (single isomer, unassigned) [Example 86, N-(4-methyl-3-pyridin-2-ylphenyl)-3-(trifluoromethyl)-6-azabicyclo[3.1.1]heptane-6-carboxamide] are 0.01 µM and 6.00 to 10.00.
For `Cc1ccc(NC(=O)[C@H]2CC[C@@H](C)N2c2ncccn2)cc1-c1ncc(F)cn1` [Example 287, (2R,5R)-N-[3-(5-fluoropyrimidin-2-yl)-4-methylphenyl]-5-methyl-1-pyrimidin-2-ylpyrrolidine-2-carboxamide], the pIC50 under setting [2] is 5.00 to 6.00. Further, the half-inhibitory concentration (IC50) (11 point curve) is 2.1 µM.
In the same order, the values of `Cc1ccc(NC(=O)C23CC(C(F)(F)F)(C2)C3)cc1-c1ccccn1` [Example 129, N-(4-methyl-3-pyridin-2-ylphenyl)-3-(trifluoromethyl)bicyclo[1.1.1] pentane-1-carboxamide] are 5.00 to 6.00 and 9.1 µM.
In the same order, the values of `CCc1ccc(-c2cc(NC(=O)[C@@H]3CC3(F)F)ccc2C)nc1` [Example 146, (1S)-N-[3-(5-ethylpyridin-2-yl)-4-methylphenyl]-2,2-difluorocyclopropane-1-carboxamide] are 5.00 to 6.00 and 7.3 µM.
In the same order, the values of `Cc1ccc(NC(=O)OCCc2ccccc2)cc1-c1ncccn1` [Example 178, Phenethyl(4-methyl-3-(pyrimidin-2-yl)phenyl)carbamate] are 5.00 to 6.00 and 4.3 µM.
Under setting [2], `Cc1cc(F)c(NC(=O)N2C3CC2CN(CC(F)(F)F)C3)cc1-c1ccccn1` [Example 3, N-(2-Fluoro-4-methyl-5-(pyridin-2-yl)phenyl)-3-(2,2,2-trifluoroethyl)-3,6-diazabicyclo[3.1.1]heptane-6-carboxamide] had a pIC50 of 5.00 to 6.00. 1.2 µM corresponded to half-maximal inhibition (11 point curve) (IC50).
Consider `Cc1ccc(NC(=O)C(C)C(F)(F)F)cc1-c1ncccn1` (racemic) [Example 169, 3,3,3-trifluoro-2-methyl-N-(4-methyl-3-pyrimidin-2-ylphenyl)propanamide], for which the pIC50 under setting [2] is below 5.00. In addition, the IC50 (11 point curve) came to 21 µM.
Regarding `Cc1ccc(NC(=O)N2C3CCC2[C@H](C)C3)cc1-c1ncc(F)cn1` (single isomer, unassigned) [Example 198, trans-N-[3-(5-fluoropyrimidin-2-yl)-4-methylphenyl]-2-methyl-7-azabicyclo[2.2.1]heptane-7-carboxamide], the IC50 (11 point curve) is 0.3 µM. Moreover, the pIC50 under setting [1] was 6.00 to 10.00.
As for `Cc1ccc(NC(=O)N2C3CCCC2C3)cc1-c1ccc(C(F)(F)F)nn1` [Example 61, N-(4-methyl-3-(6-(trifluoromethyl)pyridazine-3-yl)phenyl)-6-azabicyclo[3.1.1]heptane-6-carboxamide], the pIC50 under setting [2] was below 5.00. Moreover, the midpoint of inhibition (11 point curve), the IC50, lay at 11 µM.
In the same order, the values of `Cc1ccc(NC(=O)[C@H]2CCCN2c2ccccn2)cc1-c1ncc(F)cn1` [Example 279, (2R)-N-[3-(5-fluoropyrimidin-2-yl)-4-methylphenyl]-1-pyridin-2-ylpyrrolidine-2-carboxamide] are 5.00 to 6.00 and 4.2 µM.
Regarding `Cc1ccc(NC(=O)N2CCCC2c2ccnn2C)cc1-c1ccccn1` (racemic) [Example 89, 2-(2-methylpyrazol-3-yl)-N-(4-methyl-3-pyridin-2-ylphenyl)pyrrolidine-1-carboxamide], the pIC50 under setting [2] is below 5.00. The same molecule yielded an IC50 (11 point curve) of 12 µM.
For the molecule `Cc1ccc(NC(=O)[C@H]2CC[C@@H](C)CN2c2ncccn2)cc1-c1ncccn1` (single isomer, unassigned) [Example 206, cis-5-methyl-N-(4-methyl-3-(pyrimidin-2-yl)phenyl)-1-(pyrimidin-2-yl)piperidine-2-carboxamide], the midpoint of inhibition (11 point curve), the IC50, lay at 0.7 µM. The negative-log IC50 (pIC50) under setting [1] was 6.00 to 10.00.
In the same order, the values of `C[C@@H]1C[C@@H]2C[C@H](C1)N2C(=O)Nc1ccc(C#N)c(-c2ccccn2)c1` [Example 42, cis-N-(4-cyano-3-(pyridin-2-yl)phenyl)-3-methyl-6-azabicyclo[3.1.1]heptane-6-carboxamide] are 0.05 µM and 6.00 to 10.00.
The corresponding values for `Cc1ccc(NC(=O)[C@H]2C[C@@H](C3CC3)C2)cc1-c1ccccn1` (single isomer, unassigned) [Example 122, cis-3-cyclopropyl-N-(4-methyl-3-pyridin-2-ylphenyl)cyclobutane-1-carboxamide] are 0.3 µM and 6.00 to 10.00.
Take `COc1ccc(-c2cc(NC(=O)[C@@H]3CC3(F)F)ccc2C)nc1` [Example 152, (1S)-2,2-difluoro-N-[3-(5-methoxypyridin-2-yl)-4-methylphenyl]cyclopropane-1-carboxamide]: the pIC50 under setting [2] was 5.00 to 6.00. In addition, 3.6 µM corresponded to half-maximal inhibition (11 point curve) (IC50).
The corresponding values for `Cc1ccc(NC(=O)[C@@H]2C[C@@H]3C[C@@H]3C2)cc1-c1ncc(F)cn1` [Example 325] are 5.00 to 6.00 and 1.2 µM.
`CNC(=O)CC12CC(C)CC(C1)N2C(=O)Nc1ccc(C)c(-c2ncc(F)cn2)c1` (stereo not shown) [Example 305, N-(3-(5-fluoropyrimidin-2-yl)-4-methylphenyl)-3-methyl-1-(2-(methylamino)-2-oxoethyl)-6-azabicyclo[3.1.1]heptane-6-carboxamide] yielded an IC50 (11 point curve) of 0.01 µM. Also, the pIC50 under setting [1] was 6.00 to 10.00.
In the same order, the values of `O=C(Nc1ccc(Cl)c(-c2ccccn2)c1)N1C2CCCC1C2` [Example 20, N-(4-chloro-3-(pyridin-2-yl)phenyl)-6-azabicyclo[3.1.1]heptane-6-carboxamide] are 0.4 µM and 6.00 to 10.00.
Regarding `Cc1ccc(NC(=O)N2CCC[C@@H]2c2ccccc2)cc1-c1ccccn1` [Example 95, (2R)-N-(4-methyl-3-pyridin-2-ylphenyl)-2-phenylpyrrolidine-1-carboxamide], the pIC50 under setting [2] is 5.00 to 6.00. This molecule yielded an IC50 (11 point curve) of 1.4 µM.
The corresponding values for `COC(C)[C@@]12CC(C[C@@H](C)C1)N2C(=O)Nc1ccc(C(F)(F)F)c(-c2nccnn2)c1` (single isomer, unassigned) [Example 210, cis-N-(3-(1,2,4-triazin-3-yl)-4-(trifluoromethyl)phenyl)-1-(1-methoxyethyl)-3-methyl-6-azabicyclo[3.1.1]heptane-6-carboxamide] are below 5.00 and above 50 µM.
Under setting [2], `Cc1ccc(NC(=O)C2COC(C)(C)CN2c2ncccn2)cc1-c1ncccn1` (single isomer, unassigned) [Example 208, 6,6-dimethyl-N-(4-methyl-3-(pyrimidin-2-yl)phenyl)-4-(pyrimidin-2-yl)morpholine-3-carboxamide] gave a pIC50 of 5.00 to 6.00. The IC50 (11 point curve) was found to be 3.3 µM.
As for `C[C@@H]1CC2C[C@H](C1)N2C(=O)Nc1ccc(Br)c(-c2nccnn2)c1` [Example 315], the IC50 (11 point curve) amounted to 0.08 µM. Moreover, the pIC50 under setting [1] is 6.00 to 10.00.
The molecule `Cc1ccc(NC(=O)[C@@H]2CC2(F)F)cc1-c1ccc(C#N)cn1` [Example 158, (1S)-N-[3-(5-cyanopyridin-2-yl)-4-methylphenyl]-2,2-difluorocyclopropane-1-carboxamide] had a pIC50 under setting [2] below 5.00. The same molecule displayed an IC50 (11 point curve) of 37 µM.
Under “11 point curve”, `Cc1ccc(NC(=O)N2C3CCCC2C3)cc1-c1ccccn1` [Example 17, N-(4-methyl-3-(pyridin-2-yl)phenyl)-6-azabicyclo[3.1.1]heptane-6-carboxamide] had an IC50 of 0.1 µM. Moreover, the negative logarithm of the IC50 (pIC50) under setting [1] was 6.00 to 10.00.
Molecule `Cc1ccc(NC(=O)C2(C3CCC3)CC2)cc1-c1cccnn1` [Example 295, 1-cyclobutyl-N-(4-methyl-3-pyridazin-3-ylphenyl)cyclopropane-1-carboxamide] showed a pIC50 under setting [2] below 5.00. Under “11 point curve”, this molecule came in with an IC50 of 13 µM.
As to `O=C(Nc1ccc(C(F)(F)F)c(-c2ncc(F)cn2)c1)[C@H]1C[C@H]2C[C@H]2N1c1ccccn1` [Example 301, (1R,3R,5R)-N-(3-(5-fluoropyrimidin-2-yl)-4-(trifluoromethyl)phenyl)-2-(pyridin-2-yl)-2-azabicyclo[3.1.0]hexane-3-carboxamide], the pIC50 under setting [2] is 5.00 to 6.00. Also, the IC50 (11 point curve) is 2.1 µM.
Take `Cc1ccc(NC(=O)C2(O)CCCC2)cc1-c1ccccn1` [Example 115, 1-hydroxy-N-(4-methyl-3-pyridin-2-ylphenyl)cyclopentane-1-carboxamide]: the pIC50 under setting [2] was below 5.00. Under “11 point curve”, the IC50 was 36 µM.
As for `Cc1ccc(NC(=O)N2[C@@H]3C[C@@H](C)C[C@H]2C3)cc1-c1ncccn1` [Example 223, cis-3-methyl-N-(4-methyl-3-pyrimidin-2-ylphenyl)-6-azabicyclo[3.1.1]heptane-6-carboxamide], under “11 point curve”, 0.04 µM corresponded to half-maximal inhibition (IC50). Moreover, the pIC50 under setting [1] is 6.00 to 10.00.
